Assay: xn = mol fraction of the nth substance listed
Settings: 101.3 kPa, Liquid, Falling or rolling sphere viscometry

CCOC(=O)OCC [diethyl carbonate] + CCCCCCCC
Settings	viscosity [mPa·s]
293.15 K, x1 = 0.0504	0.535
293.15 K, x1 = 0.099	0.528
293.15 K, x1 = 0.1947	0.529
293.15 K, x1 = 0.2939	0.535
293.15 K, x1 = 0.3911	0.55
293.15 K, x1 = 0.4965	0.574
293.15 K, x1 = 0.6012	0.604
293.15 K, x1 = 0.6971	0.641
293.15 K, x1 = 0.7996	0.684
293.15 K, x1 = 0.8871	0.727
293.15 K, x1 = 0.9502	0.763
293.15 K, x1 = 1	0.795
298.15 K, x1 = 0.0568	0.514
298.15 K, x1 = 0.1069	0.51
298.15 K, x1 = 0.1985	0.511
298.15 K, x1 = 0.2979	0.515
298.15 K, x1 = 0.3968	0.528
298.15 K, x1 = 0.5035	0.551
298.15 K, x1 = 0.605	0.578
298.15 K, x1 = 0.7054	0.614
298.15 K, x1 = 0.8042	0.653
298.15 K, x1 = 0.9035	0.698
298.15 K, x1 = 0.9549	0.728
298.15 K, x1 = 1	0.749
303.15 K, x1 = 0.0504	0.485
303.15 K, x1 = 0.1002	0.485
303.15 K, x1 = 0.2035	0.486
303.15 K, x1 = 0.2953	0.494
303.15 K, x1 = 0.3942	0.507
303.15 K, x1 = 0.5035	0.525
303.15 K, x1 = 0.6019	0.55
303.15 K, x1 = 0.7055	0.58
303.15 K, x1 = 0.8011	0.613
303.15 K, x1 = 0.8999	0.654
303.15 K, x1 = 0.9498	0.677
303.15 K, x1 = 1	0.699
313.15 K, x1 = 0.0495	0.436
313.15 K, x1 = 0.0984	0.44
313.15 K, x1 = 0.1957	0.448
313.15 K, x1 = 0.2957	0.459
313.15 K, x1 = 0.3958	0.472
313.15 K, x1 = 0.4982	0.488
313.15 K, x1 = 0.6036	0.508
313.15 K, x1 = 0.6992	0.529
313.15 K, x1 = 0.7994	0.554
313.15 K, x1 = 0.8992	0.586
313.15 K, x1 = 0.9502	0.608
313.15 K, x1 = 1	0.623

CCOC(=O)OCC [diethyl carbonate] + CCCCCCC
Settings	viscosity [mPa·s]
293.15 K, x1 = 0.049	0.41
293.15 K, x1 = 0.0983	0.413
293.15 K, x1 = 0.1973	0.427
293.15 K, x1 = 0.297	0.449
293.15 K, x1 = 0.3989	0.477
293.15 K, x1 = 0.4952	0.508
293.15 K, x1 = 0.601	0.549
293.15 K, x1 = 0.7014	0.594
293.15 K, x1 = 0.8012	0.647
293.15 K, x1 = 0.8985	0.707
293.15 K, x1 = 0.9482	0.744
293.15 K, x1 = 1	0.795
298.15 K, x1 = 0.0509	0.39
298.15 K, x1 = 0.0977	0.394
298.15 K, x1 = 0.1973	0.41
298.15 K, x1 = 0.3052	0.43
298.15 K, x1 = 0.3949	0.453
298.15 K, x1 = 0.5028	0.486
298.15 K, x1 = 0.5924	0.516
298.15 K, x1 = 0.7096	0.565
298.15 K, x1 = 0.8054	0.612
298.15 K, x1 = 0.9028	0.673
298.15 K, x1 = 0.9495	0.709
298.15 K, x1 = 1	0.749
303.15 K, x1 = 0.0506	0.386
303.15 K, x1 = 0.1001	0.389
303.15 K, x1 = 0.1991	0.399
303.15 K, x1 = 0.301	0.416
303.15 K, x1 = 0.4058	0.438
303.15 K, x1 = 0.5006	0.464
303.15 K, x1 = 0.6133	0.501
303.15 K, x1 = 0.7037	0.539
303.15 K, x1 = 0.8029	0.584
303.15 K, x1 = 0.8988	0.637
303.15 K, x1 = 0.946	0.667
303.15 K, x1 = 1	0.699
313.15 K, x1 = 0.0493	0.337
313.15 K, x1 = 0.0986	0.344
313.15 K, x1 = 0.1975	0.362
313.15 K, x1 = 0.2962	0.381
313.15 K, x1 = 0.3992	0.403
313.15 K, x1 = 0.4943	0.426
313.15 K, x1 = 0.5992	0.456
313.15 K, x1 = 0.699	0.49
313.15 K, x1 = 0.8009	0.528
313.15 K, x1 = 0.8984	0.573
313.15 K, x1 = 0.9508	0.599
313.15 K, x1 = 1	0.623

CCCCCCC [heptane] + COC(=O)OC
x2 = 0
Settings	viscosity [mPa·s]
293.15 K	0.411
298.15 K	0.388
303.15 K	0.37
313.15 K	0.334

COC(=O)OC [dimethyl carbonate] + CCCCCCCC
Settings	viscosity [mPa·s]
293.15 K, x1 = 0.0513	0.532
293.15 K, x1 = 0.0997	0.524
293.15 K, x1 = 0.2027	0.508
293.15 K, x1 = 0.3063	0.506
293.15 K, x1 = 0.3994	0.502
293.15 K, x1 = 0.5123	0.507
293.15 K, x1 = 0.6078	0.512
293.15 K, x1 = 0.7137	0.524
293.15 K, x1 = 0.8055	0.541
293.15 K, x1 = 0.9061	0.575
293.15 K, x1 = 0.9516	0.596
293.15 K, x1 = 1	0.626
298.15 K, x1 = 0.0558	0.504
298.15 K, x1 = 0.096	0.498
298.15 K, x1 = 0.1488	0.489
298.15 K, x1 = 0.2289	0.478
298.15 K, x1 = 0.2947	0.477
298.15 K, x1 = 0.4216	0.474
298.15 K, x1 = 0.4883	0.475
298.15 K, x1 = 0.5931	0.479
298.15 K, x1 = 0.6867	0.491
298.15 K, x1 = 0.7879	0.509
298.15 K, x1 = 0.8873	0.541
298.15 K, x1 = 0.9502	0.561
298.15 K, x1 = 1	0.585
303.15 K, x1 = 0.0519	0.478
303.15 K, x1 = 0.0827	0.474
303.15 K, x1 = 0.1947	0.457
303.15 K, x1 = 0.2829	0.452
303.15 K, x1 = 0.3948	0.45
303.15 K, x1 = 0.4942	0.448
303.15 K, x1 = 0.5964	0.45
303.15 K, x1 = 0.6983	0.46
303.15 K, x1 = 0.7886	0.473
303.15 K, x1 = 0.8946	0.5
303.15 K, x1 = 0.9545	0.52
303.15 K, x1 = 1	0.536
313.15 K, x1 = 0.0512	0.432
313.15 K, x1 = 0.1005	0.43
313.15 K, x1 = 0.186	0.419
313.15 K, x1 = 0.301	0.413
313.15 K, x1 = 0.4072	0.409
313.15 K, x1 = 0.5002	0.41
313.15 K, x1 = 0.6042	0.417
313.15 K, x1 = 0.709	0.43
313.15 K, x1 = 0.7993	0.446
313.15 K, x1 = 0.8465	0.459
313.15 K, x1 = 0.9524	0.485
313.15 K, x1 = 1	0.494

C1CCCCC1 [cyclohexane] + CCOC(=O)OCC
x2 = 0
Settings	viscosity [mPa·s]
293.15 K	0.976
298.15 K	0.894
303.15 K	0.813
313.15 K	0.697

CCCCCCC [heptane] + CCOC(=O)OCC
x2 = 0
Settings	viscosity [mPa·s]
293.15 K	0.411
298.15 K	0.388
303.15 K	0.375
313.15 K	0.334
